The record followed here is BindingDB's records for doi:10.1021/jm00085a017 (Institute of Research, 1992).

The nature of this assay: Inhibition of the release of Alpha-amylase from rat pancreatic acinar cells.

As a reminder, the IC50 is the concentration at which inhibition is half-maximal. In turn, `CCN(CC)CCOC(=O)C(C)(c1ccccc1)C1CCCCC1` (centres undefined) yielded a 50% inhibitory concentration (IC50) of 52 nM.
The result for `CN(C)CCCOC(=O)C(C)(c1ccccc1)C1CCCCC1` (centres undefined) reads 10 nM.
The result for `CCN(CC)CCCCCOC(=O)C(C)(c1ccccc1)C1CCCCC1` (centres undefined) reads 2700 nM; that for `CCN(CC)CCCOC(=O)C(C)(c1ccccc1)C1CCCCC1` (centres undefined), 21 nM.
